The source of these data is patent US10952976B2 (priority 2018, dated 2021).

Entries after “also recorded” stand apart in the source; their conditions may differ.

Series [1] deals with DBA/1 mice (audiogenic seizures, seizure-induced respiratory arrest). Kind of series: Dose- and time-dependent effects of FFA on audiogenic seizures (AGSz) and S-IRA in DBA/1 mice. In kind it is in vivo, mouse. From the text: These studies involved age matched (<80 days) male DBA/1 mice obtained from ENVIGO. […] Starting at postnatal day 23-25, the mice were primed and tested for consistent susceptibility to AGSz and S-IRA by presenting an intense acoustic stimulus, as described previously.
The typical seizure semiology in the DBA/1 mice begins with a wild running phase, followed by clonic-tonic seizures and then tonic hind-limb extension that immediately leads to S-IRA during post-ictal behavioral depression (PID). The onset of S-IRA was visually determined by the occurrence of respiratory failure following loss of the righting reflex, relaxation of the pinnae, and then a generalized loss of muscle tone. These behaviors are reliable indicators of imminent sudden death in DBA mice. […] The mice were placed in a supine position, and a polyethylene tube (4.4 mm external diameter) connected to the outflow of a rodent respirator (Harvard Apparatus 680), pumping one cc of room air at 200 strokes/min, was the placed over the nostrils, which produced observable displacement of the chest. […] The mice were monitored until they regained the righting reflex and then returned to their home cage. Video recordings of seizure behaviors and recovery were made for off-line evaluation and analysis, including the duration of PID, as indicated by time from muscle tone loss to return of the righting reflex.
The videos of seizure behaviors were analyzed visually, and the incidence (frequency) of AGSz, seizure severity, and incidence (frequency) of S-IRA following drug treatment were compared statistically to vehicle controls using the Chi-square, Mann-Whitney U or paired samples t-test with SPSS software. The ED50 was calculated using SigmaPlot 13 and Microsoft® Excel. The experimental protocols used in these studies were approved by the Laboratory Animal Care and Use Committee of Southern Illinois University School of Medicine, which are in accordance with National Institutes of Health guidelines for the care and use of laboratory animals. Measures to minimize animal usage as well as pain and discomfort were included in these procedures.
The incidence of S-IRA and tonic seizures were analyzed Chi-square test with a significance level set at p<0.05.

In series [2] the test system is patients with Dravet syndrome. The note with it: add-on (adjunctive) agent; cited from earlier work.
For another series, the target named is T1, 5-HT2C receptor (Homo sapiens, UniProt P28335).
T1 sequence (P28335 33-458): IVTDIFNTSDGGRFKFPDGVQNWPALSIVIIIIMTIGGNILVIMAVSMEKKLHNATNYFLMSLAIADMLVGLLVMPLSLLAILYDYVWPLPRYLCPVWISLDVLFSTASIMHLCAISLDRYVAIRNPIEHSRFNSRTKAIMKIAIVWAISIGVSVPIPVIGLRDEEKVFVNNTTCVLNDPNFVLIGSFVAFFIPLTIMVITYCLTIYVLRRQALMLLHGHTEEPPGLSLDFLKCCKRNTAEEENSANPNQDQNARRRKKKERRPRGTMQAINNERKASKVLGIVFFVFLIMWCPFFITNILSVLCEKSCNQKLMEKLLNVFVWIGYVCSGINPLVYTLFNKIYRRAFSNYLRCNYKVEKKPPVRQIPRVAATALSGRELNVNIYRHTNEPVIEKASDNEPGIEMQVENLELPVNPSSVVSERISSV
The settings on record: cited from earlier work.

For the next series, the target named is 5-HT2B receptor (Homo sapiens, UniProt P41595). The settings on record: cited from earlier work.
Sequence of 5-HT2B receptor (P41595 whole entry): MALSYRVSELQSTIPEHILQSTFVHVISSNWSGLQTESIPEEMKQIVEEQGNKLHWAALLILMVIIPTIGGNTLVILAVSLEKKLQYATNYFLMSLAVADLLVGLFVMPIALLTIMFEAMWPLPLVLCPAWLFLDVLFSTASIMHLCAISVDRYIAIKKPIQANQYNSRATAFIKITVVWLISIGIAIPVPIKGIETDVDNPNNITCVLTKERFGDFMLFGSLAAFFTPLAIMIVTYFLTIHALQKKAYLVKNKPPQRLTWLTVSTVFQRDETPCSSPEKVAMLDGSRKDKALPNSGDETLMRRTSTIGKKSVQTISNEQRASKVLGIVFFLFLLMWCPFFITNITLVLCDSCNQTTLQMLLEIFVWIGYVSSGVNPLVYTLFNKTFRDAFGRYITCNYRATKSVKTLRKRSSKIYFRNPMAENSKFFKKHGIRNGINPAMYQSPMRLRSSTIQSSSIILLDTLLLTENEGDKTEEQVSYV
For series [3], the system named is DBA/1 mice (audiogenic seizures, seizure-induced respiratory arrest). Nature of the series: Reversal of FFA's anticonvulsant and S-IRA blocking effects by selective 5-HT receptor antagonists in DBA/1 mice. In kind it is in vivo, mouse. The settings on record: for reversal of S-IRA blocking effect of FFA (reduction in S-IRA incidence) / reversal of anticonvulsant effect of FFA (seizure severity, incidence of tonic seizures): antagonist dose not stated; for reversal of FFA's S-IRA blocking effect: 30 min before AGSz.

The conditions of series [4]: in vivo; cited from earlier work.
The conditions of series [5]: oral administration; cited from earlier work.
For another series, the system named is DBA mice. The note with it: cited from earlier work; for seizure-induced respiratory failure and death in DBA mice: dose-dependent manner.

In the case of `CCNC(C)Cc1cccc(C(F)(F)F)c1` (racemic) [FFA, 3-trifluoromethyl-N-ethylamphetamine], the “incidence of S-IRA” value was “not affected” in series [1] (FFA 5 mg/kg i.p.); “significant reduction” in series [1] (FFA 10 mg/kg i.p., starting at 8 h, vs saline treated controls); “reduction” in series [1] (FFA 15 mg/kg (n=73) vs saline (n=38), FIGS. 1C-1D); “significant reduction” in series [1] (FFA 15 mg/kg i.p., starting at 8 h, vs saline treated controls); “significant reduction” in series [1] (FFA 20 mg/kg i.p., starting at 8 h, vs saline treated controls). Also, the “return of tonic AGSz and S-IRA susceptibility (time after FFA)” value in series [1] (FFA 20 mg/kg) is listed as “approximately 48 h”. In series [1] (FFA 10-20 mg/kg), the “effect on S-IRA” value is “blocking effect”. Further, the “mice with significant reduction in the incidence of S-IRA” value in series [1] (FFA 10-20 mg/kg, 8 h time point (FIG. 1B)) is listed as 100%. Also, in series [1] (FFA i.p., dose not stated), the “incidence of tonic seizures” value is “significantly reduced”. Besides, in series [1] (dose- and time-dependent), the “seizure severity / AGSz susceptibility” value was “significantly reduced seizure severity or blocked AGSz susceptibility”. The “seizure activity (frequency and/or severity)” value in series [2] is reported as “significantly reduced”. The “affinity for 5-HT2C receptor” value on 5-HT2C receptor is recorded as “high affinity”. In addition, the “affinity for 5-HT2B receptor” value at 5-HT2B receptor was “high affinity”. The “action at the 5-HT4 receptor, concluded from reversal by GR125487” value in series [3] (conclusion from antagonist study in DBA/1 mice) is “agonist”.

As for `Cc1nccn1CC1CCc2c(c3ccccc3n2C)C1=O` (stereo not drawn) [Ondansetron], in series [3] (Ondansetron 1-3 mg/kg), the “reversal of FFA's effect (AGSz severity / S-IRA)” value was “not effective at any dose tested”. Besides, the “reversal of FFA's effect (AGSz severity / S-IRA)” value in series [3] (Ondansetron 2-3 mg/kg) is given as “not effective at any dose tested”. In addition, in series [3], the “reversal of S-IRA blocking effect of FFA (reduction in S-IRA incidence)” value is on record as “did not reverse” and the “reversal of anticonvulsant effect of FFA (seizure severity, incidence of tonic seizures)” value (“reversal of anticonvulsant effect of FFA” below) is listed as “did not reverse”.

For orientation: half-life means the time needed for the level to fall by half in the phase considered. Turning to `CCC1(c2ccccc2)C(=O)NC(=O)NC1=O` [Phenobarbital], the half-life in series [4] was 92 h.

Take `Cc1nc2sccn2c(=O)c1CCN1CCC(=C(c2ccc(F)cc2)c2ccc(F)cc2)CC1` [Ritanserin]: in series [3] (Ritanserin 20 mg/kg), the “reversal of FFA's anticonvulsant effect against the severity of AGSz” value (“reversal of FFA's anticonvulsant effect” below) was “able to reverse; also recorded: block”. Further, in series [3] (Ritanserin 10-20 mg/kg), the “reversal of FFA's anticonvulsant effect” value is recorded as “able to reverse” and the “reversal of FFA's S-IRA blocking effect” value is “not its S-IRA blocking effect”. Also, in series [3], the “reversal of S-IRA blocking effect of FFA (reduction in S-IRA incidence)” value was “reversed” and the “reversal of anticonvulsant effect of FFA” value is “reversed”.

Turning to `CC1CCN(CC[C@H]2CCCN2S(=O)(=O)c2cccc(O)c2)CC1` [SB269970], in series [3] (SB269970 30 mg/kg and 40 mg/kg), the “reversal of FFA's anticonvulsant effect” value is listed as “able to reverse; also recorded: block” and the “reversal of FFA's S-IRA blocking effect” value is on record as “not its S-IRA blocking effect”. Further, the “reversal of anticonvulsant effect of FFA” value in series [3] is on record as “reversed”.

In the case of `CC[C@@H](c1cccc(O)c1)[C@@H](C)CN(C)C` [Tapentadol], in series [5], the duration of analgesia was 4 to 6 h and the onset of analgesia was at most 32 min.

On to `COc1ccccc1N1CCN(CCN(C(=O)C2CCCCC2)c2ccccn2)CC1` [WAY100635], for which the “reversal of FFA's effect (AGSz severity / S-IRA)” value in series [3] (WAY100635 0.1-15 mg/kg) is reported as “not effective at any dose tested”.

Take `CNCC[C@@H](Oc1ccccc1C)c1ccccc1` [atomoxetine]: the “seizure-induced respiratory failure and death in DBA mice” value in the series with DBA mice is “prevent”.

Regarding `CNCCC(Oc1ccc(C(F)(F)F)cc1)c1ccccc1` (stereo not drawn) [fluoxetine], the “S-IRA in DBA/1 mice” value in the series with DBA mice (acting via 5-HT3 receptors) is given as “can prevent”. The “seizure-induced respiratory failure and death in DBA mice” value in the series on DBA mice was “prevent”.

For the compound `COCCCC/C(=N\OCCN)c1ccc(C(F)(F)F)cc1` [fluvoxamine], the “seizure-induced respiratory failure and death in DBA mice” value in the series with DBA mice is “prevent”.

On to `CN[C@H]1CC[C@@H](c2ccc(Cl)c(Cl)c2)c2ccccc21` [sertraline], for which the “seizure-induced respiratory failure and death in DBA mice” value in the series on DBA mice is “prevent”.

Consider `COc1ccc(C(CN(C)C)C2(O)CCCCC2)cc1` (stereo not drawn) [venlafaxine], for which the “seizure-induced respiratory failure and death in DBA mice” value with DBA mice is “prevent”.
